From PMC8315116 (Biochemistry, 2021)
Where “and” joins values, the source holds several entries; their conditions need not be identical. Equal values may be shown once. Read-outs that look alike come from different tables or passages of the source.

Experiments:
human MAT2A [1] = target: T1, human MAT2A (Homo sapiens, UniProt P31153); experiment: HPLC assay of ATPase activity of MAT2A; type: biochemical; details: 80 μM AdoMet or 10 μM ammonium vanadate
human MAT2A [2] = target: T1, human MAT2A; experiment: Product inhibition of MAT2A by AdoMet; type: biochemical; details: non-competitive
human MAT2A [3] = target: T1, human MAT2A; experiment: Triphosphate hydrolysis by MAT2A; type: biochemical; details: for Km: read-out: Km of triphosphate hydrolysis
human MAT2A [4] = target: T1, human MAT2A; experiment: Thermal melt of MAT2A with Sypro Orange and ligands; details: 10 mM MgCl2
human MAT2A [5] = target: T1, human MAT2A; experiment: Inhibition of MAT2A by ATP and triphosphate analogues; type: biochemical
human MAT2A [6] = target: T1, human MAT2A; experiment: ATP analogues as alternative substrates of MAT2A; type: biochemical; details: Figure 5C
human MAT2A [7] = target: T1, human MAT2A; details: varied substrate; fits to data of Fig. 2
human MAT2A [8] = target: T1, human MAT2A; experiment: Inhibition of MAT2A by PNP or PPNP; details: non-competitive
[9] = 1 mM methionine and 200 μM ATP, NO = no significant inhibition observed

T1 sequence (P31153 whole entry): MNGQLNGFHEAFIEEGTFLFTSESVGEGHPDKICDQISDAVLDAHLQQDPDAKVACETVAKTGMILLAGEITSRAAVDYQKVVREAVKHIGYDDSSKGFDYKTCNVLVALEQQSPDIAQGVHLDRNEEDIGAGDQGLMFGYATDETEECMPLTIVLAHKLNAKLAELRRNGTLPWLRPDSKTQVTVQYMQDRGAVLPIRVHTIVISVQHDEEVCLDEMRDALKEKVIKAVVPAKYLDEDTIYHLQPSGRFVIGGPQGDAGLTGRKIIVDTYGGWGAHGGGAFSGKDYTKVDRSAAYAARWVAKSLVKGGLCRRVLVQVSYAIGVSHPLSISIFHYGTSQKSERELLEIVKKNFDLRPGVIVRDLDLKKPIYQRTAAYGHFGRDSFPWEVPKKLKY

Molecule: C[S+](CC[C@H](N)C(=O)[O-])C[C@H]1O[C@@H](n2cnc3c(N)ncnc32)[C@H](O)[C@@H]1O (stereo partly drawn) [AdoMet, S-Adenosyl-L-methionine]
- effect on the ATPase reaction of MAT2A (human MAT2A [1]): inhibited
- Ki (human MAT2A [2]; with respect to ATP): 136 ± 7 µM
- Ki (human MAT2A [2]; with respect to methionine): 81 ± 10 µM
- activation of triphosphate hydrolysis (human MAT2A [3]; AdoMet at 150 μM versus no AdoMet): 3.5 fold
- thermal stabilization of MAT2A, in words (human MAT2A [4]): did little to increase MAT2A stability

Molecule: O=P(O)(O)OP(=O)(O)OP(=O)(O)O [Triphosphate]
- rate of triphosphate hydrolysis (human MAT2A [3]; AdoMet at 150 μM): 0.07 ± 0.01 s⁻¹
- kcat of triphosphate hydrolysis (human MAT2A [3]; AdoMet at 1 mM): 0.033 ± 0.003 s⁻¹
- Km (human MAT2A [3]; AdoMet at 150 μM): 6 ± 2 µM
- Km (human MAT2A [3]; without AdoMet present): 4 ± 2 µM
- rate of triphosphate hydrolysis (human MAT2A [3]; without AdoMet present): 0.020 ± 0.003 s⁻¹
- thermal stabilization of MAT2A, in words (human MAT2A [4]): large shifts in the Tm
- Ki (human MAT2A [5]; [9]): 3.45 µM and 3.4 µM

Molecule: O=P(O)(O)OP(=O)(O)O [pyrophosphate]
- thermal stabilization of MAT2A, in words (human MAT2A [4]): large shifts in the Tm

Molecule: Nc1ncnc2c1ncn2[C@@H]1O[C@H](COP(=O)(O)CP(=O)(O)OP(=O)(O)O)[C@@H](O)[C@H]1O [AMPCPP]
- production of orthophosphate from methionine and ATP analogue (human MAT2A [6]): phosphate formation

Molecule: O=P(O)(O)NP(=O)(O)NP(=O)(O)O [PNPNP, (α–β, β–γ)-diimido triphosphate]
- shift of thermal melt temperature (Tm) compared to MAT2A alone (human MAT2A [4]): > 50 °C
- Ki (human MAT2A [5]; [9]): 0.12 ± 0.03 µM
- increased affinity compared to PPNP (human MAT2A [5]; PNPNP versus PPNP): ~10 fold
- Ki (human MAT2A [5]; read-out: Ki (inhibitor)): 0.115 µM

Molecule: CSCC[C@H](N)C(=O)O [Methionine]
- kcat (human MAT2A [7]): 0.27 ± 0.01 s⁻¹
- shift of thermal melt temperature (Tm) compared to MAT2A alone (human MAT2A [4]): 1-3 °C

Molecule: phosphate
- thermal stabilization of MAT2A, in words (human MAT2A [4]): did little to increase MAT2A stability

Molecule: O=P(O)(O)NP(=O)(O)O [Imidodiphosphate]
- Ki (human MAT2A [8]; Ki, toward ATP): 14 ± 1 µM
- Ki (human MAT2A [8]; Ki, toward methionine): 17 ± 2 µM

Molecule: O=P(O)(O)NP(=O)(O)OP(=O)(O)O [PPNP, Imidotriphosphate]
- Ki (human MAT2A [8]; toward ATP): 0.86 ± 0.06 µM
- Ki (human MAT2A [8]; toward methionine): 0.76 ± 0.07 µM
